Patent US10092537B2, “Use for PAI-1 inhibitor” (RENASCIENCE CO., LTD., priority 2013, dated 2018)
Counter-ions that a name gives are not always drawn.

Biological target: human PAI-1 (Homo sapiens, UniProt P05121)
Experiment: Measurement of PAI-1 inhibitory activity of compound group 1 (t-PA, Spectrozyme t-PA chromogenic substrate)
Details: read-out: PAI-1 activity %

human PAI-1, sequence (P05121 24-402): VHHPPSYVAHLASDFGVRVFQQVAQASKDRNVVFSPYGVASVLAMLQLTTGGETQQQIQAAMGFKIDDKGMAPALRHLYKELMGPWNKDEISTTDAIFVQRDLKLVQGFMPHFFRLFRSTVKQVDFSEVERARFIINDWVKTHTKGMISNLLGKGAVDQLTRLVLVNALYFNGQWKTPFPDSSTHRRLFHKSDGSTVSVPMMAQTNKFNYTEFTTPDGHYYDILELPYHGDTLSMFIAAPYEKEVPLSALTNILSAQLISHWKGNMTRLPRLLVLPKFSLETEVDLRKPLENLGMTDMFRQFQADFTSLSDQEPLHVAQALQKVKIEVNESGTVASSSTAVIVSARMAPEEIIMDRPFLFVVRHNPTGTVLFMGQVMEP

| Structure (SMILES) | activity at 2.5 µM [%] | activity at 10 µM [%] |
| --- | --- | --- |
| CC(C)(C)c1ccc(OCC(=O)Nc2ccc(Cl)cc2C(=O)O)cc1 [Example 18, 2-{[(4-tert-butylphenoxy)acetyl]amino}-5-chlorobenzoic acid] | 81.4 | 16.1 |
| O=C(Nc1ccc(Cl)cc1C(=O)O)c1ccc(C#CC2CCCCC2)cc1 [Example 88, 5-chloro-2-({[4-(cyclohexylethynyl)phenyl]carbonyl}amino)benzoic acid] | 35.5 | 0.8 |
| O=C(Nc1ccc(Cl)cc1C(=O)O)c1cccc(C2CCCCC2)c1 [Example 80, 5-chloro-2-{[(3-cyclohexylphenyl)carbonyl]amino}benzoic acid] | 45.5 | 0 |
| O=C(Nc1ccc(Cl)cc1C(=O)O)c1cccc(C#CC2CCCCC2)c1 [Example 87, 5-chloro-2-({[3-(cyclohexylethynyl)phenyl]carbonyl}amino)benzoic acid] | 20.5 | 1.2 |
| O=C(Nc1ccc(Cl)cc1C(=O)O)c1ccc(C(=O)C23CC4CC(CC(C4)C2)C3)cc1 [Example 56, 2-({[4-(adamantan-1-ylcarbonyl)phenyl]carbonyl}amino)-5-chlorobenzoic acid] | 75.8 | 0.7 |
| O=C(Nc1ccc(C2=CCCCC2)cc1C(=O)O)c1ccc(C2CCCCC2)cc1 [Example 81, 5-(cyclohex-1-en-1-yl)-2-{[(4-cyclohexylphenyl)carbonyl]amino}benzoic acid] | 1 | 0 |
| O=C(COc1cccc(C2CCCCC2)c1)Nc1ccc(Cl)cc1C(=O)O [Example 26, 5-chloro-2-{[(3-cyclohexylphenoxy)acetyl]amino}benzoic acid] | 98 | 0.6 |
| O=C(Cc1ccc(-c2ccccc2)cc1)Nc1ccc(Cl)cc1C(=O)O [Example 70, 2-[(biphenyl-4-ylacetyl)amino]-5-chlorobenzoic acid] | 94.6 | 4.4 |
| O=C(/C=C/c1cccc(-c2cccc3cccnc23)c1)Nc1ccc(Cl)cc1C(=O)O [Example 101, sodium 5-chloro-2-({(2E)-3-[3-(quinolin-8-yl)phenyl]prop-2-enoyl}amino)benzoate] | 24.7 | 0.2 |
| O=C(Nc1ccc(Cl)cc1C(=O)O)C(=O)c1c[nH]c2ccc(OCc3ccccc3)cc12 [Example 57, 2-({[5-(benzyloxy)-1H-indol-3-yl](oxo)acetyl}amino)-5-chlorobenzoic acid] | 38.6 | 0.2 |
| O=C(Nc1ccc(Cl)cc1C(=O)O)c1cccc(OCc2ccc3ccccc3n2)c1 [Example 99, sodium 5-chloro-2-({[3-(quinolin-2-ylmethoxy)phenyl]carbonyl}amino)benzoate] | 87.8 | 0.3 |
| CC(C)(Oc1cccc(-c2ccoc2)c1)C(=O)Nc1ccc(Cl)cc1C(=O)O [Example 44, 5-chloro-2-({2-[3-(furan-3-yl)phenoxy]-2-methylpropanoyl}amino)benzoic acid] | 97.8 | 20.4 |
| O=C(COc1cccc(-c2ccoc2)c1)Nc1ccc(-c2ccccc2)cc1C(=O)O [Example 22, 4-({[3-(furan-3-yl)phenoxy]acetyl}amino)biphenyl-3-carboxylic acid] | 29.9 | 0.4 |
| Cc1ccc(-c2cccc(C(=O)Nc3ccc(Cl)cc3C(=O)O)c2)cc1 [Example 32, 5-chloro-2-{[(4′-methylbiphenyl-3-yl)carbonyl]amino}benzoic acid] | 94.4 | 1.7 |
| O=C(Nc1ccc(C23CC4CC(CC(C4)C2)C3)cc1)C(=O)Nc1ccc(Cl)cc1C(=O)O [Example 106, sodium 2-[({[4-(adamantan-1-yl)phenyl]amino}(oxo)acetyl)amino]-5-chlorobenzoate] | 88.4 | 26.3 |
| O=C(Nc1ccc(Cl)cc1C(=O)O)c1ccc(OCc2ccc3ccccc3n2)cc1 [Example 100, sodium 5-chloro-2-({[4-(quinolin-2-ylmethoxy)phenyl]carbonyl}amino)benzoate] | 92.1 | 0.7 |
| O=C(CCc1cccc(-c2ccoc2)c1)Nc1ccc(Cl)cc1C(=O)O [Example 36, 5-chloro-2-({3-[3-(furan-3-yl)phenyl]propanoyl}amino)benzoic acid] | 95.7 | 3.7 |
| Cc1cccc(-c2ccc(NC(=O)COc3cccc(-c4ccoc4)c3)c(C(=O)O)c2)c1 [Example 27, 4-({[3-(furan-3-yl)phenoxy]acetyl}amino)-3′-methylbiphenyl-3-carboxylic acid] | 69.1 | 0.7 |
| Cc1cc(C)cc(-c2ccc(NC(=O)COc3cccc(-c4ccoc4)c3)c(C(=O)O)c2)c1 [Example 28, 4-({[3-(furan-3-yl)phenoxy]acetyl}amino)-3′,5′-dimethylbiphenyl-3-carboxylic acid] | 33.6 | 0.5 |

| Structure (SMILES) | activity at 2.5 µM [%] | activity at 10 µM [%] |
| --- | --- | --- |
| O=C(Nc1ccc(Cl)cc1C(=O)O)c1ccc2c(c1)CCCC2 [Known compound (5), 5-chloro-2-[(5,6,7,8-tetrahydronaphthalene-2-ylcarbonyl)amino] benzoic acid, reference compound] | 98.5 | 18.8 |
| O=C(CCCOc1ccc(C23CC4CC(CC(C4)C2)C3)cc1)Nc1ccc(Cl)cc1C(=O)O [Example 55, 2-({4-[4-(adamantan-1-yl)phenoxy]butanoyl}amino)-5-chlorobenzoic acid] | 29.8 | 1.1 |
| O=C(Nc1ccc(C#CC2CCCCC2)cc1C(=O)O)c1ccc(C2CCCCC2)cc1 [Example 92, 5-(cyclohexylethynyl)-2-{[(4-cyclohexylphenyl)carbonyl]amino}benzoic acid] | 0 | 0.4 |
| O=C(/C=C/c1cccc(-c2ccccc2)c1)Nc1ccc(Cl)cc1C(=O)O [Example 89, 2-{[(2E)-3-(biphenyl-3-yl)prop-2-enoyl]amino}-5-chlorobenzoic acid] | 60.7 | 0.1 |
| O=C(/C=C/c1cccc(-c2cccnc2)c1)Nc1ccc(Cl)cc1C(=O)O [Example 103, sodium 5-chloro-2-({(2E)-3-[3-(pyridin-3-yl)phenyl]prop-2-enoyl}amino)benzoate] | 92.3 | 34.2 |
| O=C(COc1ccccc1C1CCCCC1)Nc1ccc(Cl)cc1C(=O)O [Example 17, 5-chloro-2-{[(2-cyclohexylphenoxy)acetyl]amino}benzoic acid] | 52.8 | 0.8 |
| O=C(COc1cccc(-c2ccco2)c1)Nc1ccc(Cl)cc1C(=O)O [Example 53, 5-chloro-2-({[3-(furan-2-yl)phenoxy]acetyl}amino)benzoic acid] | 95.3 | 21.6 |
| COc1ccccc1-c1cccc(C(=O)Nc2ccc(Cl)cc2C(=O)O)c1 [Example 33, 5-chloro-2-{[(2′-methoxybiphenyl-3-yl)carbonyl]amino}benzoic acid] | 92.8 | 21.6 |
| O=C(Nc1ccc(CCC2CCCCC2)cc1C(=O)O)c1ccc(C2CCCCC2)cc1 [Example 93, 5-(2-cyclohexylethyl)-2-{[(4-cyclohexylphenyl)carbonyl]amino}benzoic acid] | 0 | 0 |
| O=C(Nc1ccc(Cl)cc1C(=O)O)c1cccc(C23CC4CC(CC(C4)C2)C3)c1 [Example 62, 2-({[3-(adamantan-1-yl)phenyl]carbonyl}amino)-5-chlorobenzoic acid] | 29.1 | 0.6 |
| O=C(O)c1cc(Cl)ccc1NC(=O)C(c1ccccc1)c1ccccc1 [Known compound (6), 5-chloro-2-[(diphenylacetyl)amino] benzoic acid, reference compound] | 85 | 37.4 |
| O=C(COC(c1ccccc1)c1ccccc1)Nc1ccc(Cl)cc1C(=O)O [Example 76, 5-chloro-2-{[(diphenylmethoxy)acetyl]amino}benzoic acid] | 92.9 | 30.6 |
| O=C(COc1cccc(-c2ccoc2)c1)Nc1ccc(Br)cc1C(=O)O [Example 15, 5-bromo-2-({[3-(furan-3-yl)phenoxy]acetyl}amino)benzoic acid] | 87.3 | 3 |
| O=C(COc1cccc(C23CC4CC(CC(C4)C2)C3)c1)Nc1ccc(Cl)cc1C(=O)O [Example 30, 2-({[3-(adamantan-1-yl)phenoxy]acetyl}amino)-5-chlorobenzoic acid] | 19.3 | 1.3 |
| O=C(Nc1ccc(Cl)cc1C(=O)O)c1ccc(-n2cccc2)cc1 [Salt of Known compound (7), 5-chloro-2-({[4-(1H-pyrrol-1-yl)phenyl]carbonyl}amino)benzoic acid hydrochloride, reference compound] | 100 | 3.7 |
| CC(C)(C(=O)Nc1ccc(Cl)cc1C(=O)O)c1cccc(-c2ccoc2)c1 [Example 37, 5-chloro-2-({2-[3-(furan-3-yl)phenyl]-2-methylpropanoyl}amino)benzoic acid] | 53.1 | 5.9 |
| O=C(Nc1ccc(Cl)cc1C(=O)O)c1ccc(Oc2ccccc2)cc1 [Example 42, 5-chloro-2-{[(4-phenoxyphenyl)carbonyl]amino}benzoic acid] | 98.6 | 3.8 |
| Cc1sc(NC(=O)c2ccc(C3CCCCC3)cc2)c(C(=O)O)c1-c1ccccc1 [Example 74, 2-{[(4-cyclohexylphenyl)carbonyl]amino}-5-methyl-4-phenylthiophene-3-carboxylic acid] | 8.6 | 0.2 |
| O=C(Nc1ccc(Cl)cc1C(=O)O)c1ccc(C23CC4CC(CC(C4)C2)C3)cc1 [Example 40, 2-({[4-(adamantan-1-yl)phenyl]carbonyl}amino)-5-chlorobenzoic acid] | 19.3 | 1.7 |
